Calls of active or inactive are those of the source.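 Rule for the calls: active = over 75% inhibition of phospholipid synthesis and over 75% inhibition of fatty acid synthesis; inactive = the rest.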
Test system: animal cells, 32Pi/[3H]acetate lipid labeling, 3 h
Test: lipid synthesis blockade by radiolabel incorporation – cell-based, 32Pi and [3H]acetate labeling (AID 1347132)

For `CC(C)(C)c1cc(/C=C(\C#N)C(N)=S)cc(C(C)(C)C)c1O`, which outcome is on record?
The outcome was “inactive”.

And the outcome (listed dose 0.1 µM)?
The outcome was “inactive”.

What about the outcome (listed dose 0.3 µM) of the same molecule?
Its outcome is “inactive”.

What about the outcome (listed dose 1 µM) of the same molecule?
The outcome was “inactive”.

What about the outcome (listed dose 3 µM) of the same molecule?
Its outcome is “inactive”.

And the outcome (listed dose 10 µM)?
Its outcome is “active”.

Source: PubChem BioAssay AID1347132
